From patent publication US10806798B2, “Compound with effects of thrombolysis, free radical scavenging and thrombus-targeting” (Shanghai Lumosa Therapeutics Co., Ltd., priority 2012, dated 2020)

Tests used:
rats with stroke [1] = test: Successive treatments starting 4 h after the onset of stroke (Zealonga scores); format: in vivo, SD rats; conditions: for number of rats scored Score 0 / number of rats scored Score 1 / number of rats scored Score 2: urokinase 20000 IU/kg once per day from 4 h after stroke onset, n=6
Method: The efficacy was represented by neural function scores, and a lower score indicates higher efficacy. A 10% chloral hydrate solution was injected intraperitoneally into male SD rats at a dosage of 400 mg/kg body weight for anesthesia. A longitudinal incision was made at the center of the neck, and the right carotid common artery trunk was dissected (about 3 cm in length). Carotid external artery branches were each dissected and ligated at the hyoid level, and the carotid internal artery was dissected at the swollen part of the neck. The open incision in the carotid internal artery and the proximal end of the common carotid artery were occluded respectively with noninvasive arterial clips, and the distal end of the carotid external artery was ligated. A catheter containing 0.5 mL thrombus suspension in normal saline was inserted in the carotid external artery trunk. At the same time when the clip on the carotid internal artery was released, the 0.5 mL thrombus suspension in normal saline in the catheter slowly flew from the carotid external artery to its proximal end, and then was injected into the arteries in brain through the carotid internal artery. Subsequently, the proximal end of the carotid artery was ligated, the arterial clips on the carotid internal artery and the common carotid artery were released, and blood flow was restored. After the wound was stitched up, 20,000 IU penicillin was intramuscularly injected for prevention from infection. After 4 h, compound Ie in normal saline (at a dosage of 1 μmol/kg, n=1), urokinase in normal saline (at a dosage of 20000 IU/kg, n=6) or tPA in normal saline (at a dosage of 3 mg/kg, n=6) was infused through the tail vein. Infusion of compound Ie in normal saline through rat tail vein was carried out once per day for 6 consecutive days, observed for 7 days. The rats were compared to themselves each day, and evaluated for degree of damage in neural function by the Zealonga method. Alternatively, infusion of urokinase in normal saline through rat tail vein was carried out once per day for two consecutive days, the rats were compared to themselves each day, and evaluated for the degree of damage in neural function by the Zealonga method. Alternatively, infusion of tPA in normal saline through rat tail vein was carried out once per day for two consecutive days, the rats were compared to themselves each day, and evaluated for the degree of damage in neural function by the Zealonga method. A score of 0 indicated no sign of loss in neural function, 1 indicated the front limbs on the undamaged side could not stretch out, 2 indicated walking toward the undamaged side, 3 indicated tail-chasing walking in circles toward the undamaged side, 4 indicated involuntary walking with disturbance of consciousness, and 5 indicated death.

rats with stroke [2] = test: Immediate treatment after stroke onset with different dosages of Ie (Zealonga scores); format: in vivo, SD rats
Method: A 10% chloral hydrate solution (400 mg/kg) was injected intraperitoneally into male SD rats (250 to 300 g) for anesthesia. An incision of about 2 cm in length was longitudinally made slightly on the right to the center of the neck, and the right carotid common artery, carotid external artery and carotid internal artery were dissected along the margin of the inner side of sternocleidomastoid muscles. The open incision in the carotid internal artery and the proximal end of the common carotid artery were occluded respectively with noninvasive arterial clips. A small incision was made on the carotid external artery, and the distal end of the carotid external artery was ligated. The arterial clip at the proximal end of the carotid external artery was released, and 10 μl blood was drawn before the proximal end of the common carotid artery was again occluded with a noninvasive arterial clip. The 10 μl blood drawn was placed in a 1 mL EP vial and kept at RT for 30 min until coagulation of blood, and then transferred into a −20° C. refrigerator for 1 h to allow solid coagulation. After 1 h, the blood clots were taken out, added into 1 mL saline, and then broken into relatively uniform microthrombus by using a steel spatula. The microthrombus suspension was then transferred into a 1 mL injector until use. At the same time when the clip on the carotid internal artery of the rat was released, the 1 mL thrombus suspension in the injector was slowly injected from the carotid external artery of the rat to its proximal end, and then was injected into the brain of the rat through the carotid internal artery. Subsequently, the proximal end of the carotid external artery was ligated, the arterial clips on the carotid internal artery and the carotid common artery were released, and blood flow was restored. Injection of urokinase in normal saline (positive control group, at a dosage of 20000 IU/kg), tPA in normal saline (positive control group, at a dosage of 3 mg/kg), normal saline (blank control group, at a dosage of 3 mL/kg), or compound Ie in normal saline (at a dosage of 1 μmol/kg, 0.1 μmol/kg or 0.01 μmol/kg) was carried out. 24 h after the rats were awake, the degree of damage in neural function was evaluated by the Zealonga method. A score of 0 indicated no sign of loss in neural function, 1 indicated the front limbs on the undamaged side could not stretch out, 2 indicated walking toward the undamaged side, 3 indicated tail-chasing walking in circles toward the undamaged side, 4 indicated involuntary walking with disturbance of consciousness, and 5 indicated death. As shown in the results, in rats receiving immediate treatment after the onset of stroke with […] compound Ie, the percentage of rats with a neural function score of 0 was 60%, 30%, and 0%, respectively; and the percentage of rats with a neural function score of 1 was 20%, 30%, and 10%, respectively.

urokinase
number of rats scored Score 0 (rats with stroke [1]; Day 1): 2 rats
number of rats scored Score 1 (rats with stroke [1]; Day 1): 3 rats
number of rats scored Score 2 (rats with stroke [1]; Day 1): 1 rat rats
number of rats scored Score 0 (rats with stroke [1]; Day 2): 3 rats
number of rats scored Score 1 (rats with stroke [1]; Day 2): 1 rat^ rats
number of rats scored Score 2 (rats with stroke [1]; Day 2): 1 rat rats
rats died (rats with stroke [1]; out of 6 rats, within 48 h, urokinase 20000 IU/kg each day from 4 h after stroke onset): 2
autopsy on the dead rats (rats with stroke [1]; urokinase 20000 IU/kg each day from 4 h after stroke onset): hemorrhage in internal organs, particularly severe hemorrhage in lungs
percentage of rats with a neural function score of 0 (rats with stroke [2]; 20000 IU/kg urokinase): 10%
percentage of rats with a neural function score of 1 (rats with stroke [2]; 20000 IU/kg urokinase): 50%
number of rats scored Score 0 (rats with stroke [2]; urokinase 20000 IU/kg, n = 10): 1
number of rats scored Score 1 (rats with stroke [2]; urokinase 20000 IU/kg, n = 10): 5
number of rats scored Score 2 (rats with stroke [2]; urokinase 20000 IU/kg, n = 10): 0
number of rats scored Score 3 (rats with stroke [2]; urokinase 20000 IU/kg, n = 10): 3
number of rats scored Score 4 (rats with stroke [2]; urokinase 20000 IU/kg, n = 10): 1
number of rats scored Score 5 (rats with stroke [2]; urokinase 20000 IU/kg, n = 10): 0
